Measurements taken from publication PMC7600679, “Benzoxazole-Based Metal Complexes to Reverse Multidrug Resistance in Bacteria” (Antibiotics, 2020).
Converted amounts (≈) assume the structure as drawn. Read-outs that look alike come from different tables or passages of the source.

Assays:
S. aureus MRSA 272123 = test: Resistance modulation (MIC reduction) assay with CIP and TET; assay type: cell-based, Staphylococcus aureus; settings: antibiotic alone
Description: (§1) The resistance modulation effects of compounds with ciprofloxacin (CIP) and tetracycline (TET) antibiotics were evaluated by the MIC reduction method on the Gram-negative E. coli AG100, AG100 A, and the Gram-positive S. aureus ATCC and MRSA strains.
(§2) The chemosensitizing activity of benzoxazole-type ligands and their metal complexes was determined based on the MIC values of the antibiotics in the presence of sub-inhibitory concentrations of the compounds (¼ MIC) in both Gram-negative and Gram-positive strains. The MICs were determined in strains by the two-fold broth microdilution method in 96-well plates, using serial dilutions of TET and CIP. The first four rows contained two-fold dilutions of antibiotics, and combinations of the TET and CIP and tested compounds were transferred into the last four rows. The 10^−4 dilution of an overnight bacterial culture in 50 μL of MHB was then measured to each well, except for the medium control wells. The plates were kept at 37 °C for 18 h. MIC values of antibiotics and their combination with tested compounds were detected by visual inspection.

E. coli AG100 [1] = test: as above; assay type: cell-based, Escherichia coli; settings: antibiotic alone
Description: as §1, §2

E. coli AG100 [2] = test: Real-time ethidium bromide accumulation (efflux pump inhibition, AcrAB-TolC); assay type: cell-based, Escherichia coli; settings: compounds at ¼ MIC, EB 1 μg/mL, minute 30
Description: (§3) Since multidrug resistance EPs are very important factors contributing to multidrug resistance (MDR) in both Gram-positive and Gram-negative bacteria, the inhibition of these pumps could reverse the resistant phenotype and restore the activity of antibiotics. The effect of compounds on ethidium bromide (EB) accumulation was determined by the automated EB method. This assay was used to determine how much of the fluorescent dye and pump substrate EB was accumulated by the bacterial cells in the presence of the tested compounds. The real-time accumulation of EB was monitored for 30 min in both S. aureus and E. coli strains.
(§4) The accumulation of the efflux pump substrate EB was monitored by the automated EB method using a LightCycler real-time thermocycler (LightCycler 1.5, Roche, Indianapolis, IN, USA). An aliquot of an overnight culture of the S. aureus strains in TSB medium was inoculated into fresh TSB medium, and it was incubated until it reached an optical density (OD) of 0.6 at 600 nm. In the case of E. coli strains, the medium applied in the assay was LB broth; the preparation of the inoculum was similar to the one of S. aureus. The cells were washed with phosphate buffered saline (PBS; pH 7.4) and centrifuged at 13,000 × g for 3 min, the pellets were re-suspended in PBS (pH 7.4), and the OD was calibrated to 0.6 at 600 nm. The compounds were measured at ¼ MIC concentration (in double-concentrated form) to the EB solution in PBS. The final concentration of EB was determined according to the MIC and the fluorescent signal produced by this amount of EB. In the case of all strains, the concentration of EB was 1 μg/mL. Then, 10 μL of the EB solution plus the compound were pipetted into standard glass capillary tubes of 20 µL maximum volume (Roche, Indianapolis, USA), and 10 μL of bacterial culture (OD of 0.6 at 600 nm) were transferred to the capillaries. The capillaries containing the samples were placed into the carousel, and the fluorescence was monitored at the FL-2 channel in every minute on a real-time basis.
(§5) Based on the data obtained, the relative fluorescence index (RFI) of the last time point (minute 30) was determined as follows:RFI = (RFtreated − RFuntreated)/RFuntreated(1) where RFtreated is the relative fluorescence (RF) at the last time point of the EB retention curve in the presence of an inhibitor, and RFuntreated is the relative fluorescence at the last time point of the EB retention curve of the untreated control having the solvent control (DMSO).

E. coli AG100 A [3] = test: Real-time ethidium bromide accumulation (efflux pump inhibition); assay type: cell-based, Escherichia coli; settings: compounds at ¼ MIC, EB 1 μg/mL, minute 30
Description: as §3, §4, §5

S. aureus ATCC 25923 = test: as above; assay type: cell-based, Staphylococcus aureus; settings: compounds at ¼ MIC, EB 1 μg/mL, minute 30
Description: as §3, §4, §5

[4] = tested on: MRC-5 human embryonal lung fibroblast cell line; test: Cytotoxicity assay (MTT); assay type: cell-based
Description: The MRC-5 human embryonic lung fibroblast cell line (ATCC CCL-171; provider: LGC Promochem, Teddington, UK) was used in the experiments. The cells were cultivated in Eagle’s Minimal Essential Medium (EMEM; Sigma–Aldrich, St. Louis, MO, USA), supplemented with 1% non-essential amino acid mixture, 10% heat-inactivated fetal bovine serum, 2 mM L-glutamine, 1 mM Na-pyruvate, nystatin, and a penicillin–streptomycin mixture in concentrations of 100 U/L and 10 mg/L, respectively. The supplementary components were obtained from Sigma–Aldrich, St. Louis, MO, USA. The cell culture was kept in a humidified atmosphere (5% CO2, 95% air) at 37 °C.
The activity of increasing concentrations of the compounds on cell growth was determined in 96-well flat-bottomed microtiter plates by two-fold serial dilutions of the benzoxazole derivatives. The adherent human embryonic lung fibroblast cells (10^4/well) was seeded in EMEM medium in 96-well microtiter plates for 4 h prior to the assay. The serial dilutions of the compounds were made in a separate plate, and then pipetted to the plates containing the MRC-5 cell line. Culture plates were incubated at 37 °C for 24 h; at the end of the incubation period, 20 μL of MTT (3-(4,5-dimethylthiazol-2-yl)-2,5-diphenyltetrazolium bromide) solution (from a 5 mg/mL stock solution) was measured to each well. After the incubation at 37 °C for 4 h, 100 μL of sodium dodecyl sulfate (SDS) solution (10% SDS in 0.01 M HCl) was added to each well to dissolve the formazan crystals and the samples were further incubated at 37 °C overnight. Cell growth was calculated by measuring the OD at 540 nm (ref. 630 nm) with a Multiscan EX ELISA reader. The cytotoxicity was expressed as IC50 values, defined as the inhibitory dose that reduces the growth of the cells exposed to the tested compounds by 50%.

S. aureus 272123 (MRSA) [5] = test: Minimum inhibitory concentration (broth microdilution, CLSI); assay type: cell-based, Staphylococcus aureus; settings: 18 h, visual inspection
Description: (§6) The compounds were further investigated against two Gram-positive strains, S. aureus ATCC 25923 (MSSA), used as the methicillin susceptible reference strain, and the methicillin- and ofloxacin-resistant S. aureus 272123 clinical isolate (MRSA), which was given by Prof. Dr. Leonard Amaral (Institute of Hygiene and Tropical Medicine, Lisbon, Portugal).
(§7) The minimum inhibitory concentrations (MICs) of compounds were determined in 96-well plates based on the Clinical and Laboratory Standard Institute guidelines (CLSI guidelines). The compounds were diluted in 100 μL of MHB. Then, 10^−4 dilution of an overnight bacterial culture in 100 μL of medium were added to each well, with the exception of the medium control wells.

E. coli AG100 [6] = test: as above; assay type: cell-based, Escherichia coli
Description: The strains were donated by Prof. Dr. Hiroshi Nikaido (Department of Molecular and Cell Biology and Chemistry, University of California, Berkeley, CA, USA).
as §7

[7] = tested on: Chromobacterium violaceum 026; test: as above; assay type: cell-based; settings: C. violaceum 026
Description: (§8) The following bacterial strains were applied in the QS tests: C. violaceum 026 as sensor strain and E. cloacae 31298 isolated from clinical wound (used as N-acyl-homoserine lactone (AHL) producer); this strain induced pigment production by C. violaceum and is a model strain to study QS interactions.
as §7

[8] = tested on: Enterobacter cloacae 31298; test: as above; assay type: cell-based; settings: E. cloacae 31298
Description: as §8, §7

[9] = tested on: Staphylococcus aureus ATCC 25923; test: as above; assay type: cell-based; settings: S. aureus ATCC 25923, 18 h, visual inspection
Description: as §6, §7

E. coli AG100 A [10] = test: as above; assay type: cell-based, Escherichia coli; settings: 18 h
Description: Wild-type E. coli K-12 AG100 strain (argE3 thi-1 rpsL xyl mtl Δ(gal-uvrB) supE44) expressing the AcrAB TolC EP at its basal level and its AcrAB-TolC deleted mutant E. coli K-12 AG100 A strain. The strains were donated by Prof. Dr. Hiroshi Nikaido (Department of Molecular and Cell Biology and Chemistry, University of California, Berkeley, CA, USA).
as §7

S. aureus 272123 (MRSA) [11] = test: Real-time ethidium bromide accumulation (efflux pump inhibition); assay type: cell-based, Staphylococcus aureus; settings: compounds at ¼ MIC (3 at 12.5 µM), VER at 25 µM, EB 1 μg/mL, minute 30
Description: as §3, §4, §5

[12] = Staphylococcus aureus, ATCC25923
[13] = E. coli AG100, 18 h, visual inspection, read-out: MIC
[14] = E. coli AG100 A (AcrAB-TolC deleted), visual inspection

O=C(O)c1cn(C2CC2)c2cc(N3CCNCC3)c(F)cc2c1=O [CIP, ciprofloxacin, reference compound]
MIC of antibiotic in the absence of the compounds (S. aureus MRSA 272123): 12.5 µM
MIC of antibiotic in the absence of the compounds (E. coli AG100 [1]): 0.016 µM

CN(C)CCCN1c2ccccc2Sc2ccc(Cl)cc21 [CPZ, Chlorpromazine, reference compound]
Relative fluorescence index (RFI) (E. coli AG100 [2]): 0.38
Relative fluorescence index (RFI) (E. coli AG100 A [3]): 0.48
Relative fluorescence index (RFI) (S. aureus ATCC 25923): 0.17

O=C(Cc1nc2ccccc2o1)C(F)(F)F [Compound 1, 2-trifluoroacetonylbenzoxazole]
Relative fluorescence index (RFI) (E. coli AG100 [2]): −0.35
Relative fluorescence index (RFI) (E. coli AG100 A [3]): 0
Cytotoxic effect (class in words) ([4]; 24 h): no (IC50 > 100 µM)
IC50 ([4]; Homo sapiens, MRC5, 24 h): > 100 µM
MIC (S. aureus 272123 (MRSA) [5]): 12.5 µM (≈ 2.86 µg/mL)
MIC (S. aureus 272123 (MRSA) [5]; Staphylococcus aureus): 12.5 µM (≈ 2.86 µg/mL)
MIC (E. coli AG100 [6]; Escherichia coli, AG100, 18 h): 50 µM (≈ 11.5 µg/mL)
MIC ([7]; Chromobacterium violaceum): > 100 µM
MIC ([8]; Enterobacter cloacae): > 100 µM
MIC [9, 12]: 25 µM (≈ 5.73 µg/mL)
MIC (E. coli AG100 A [10]; Escherichia coli, AG100A): 50 µM (≈ 11.5 µg/mL)
Relative fluorescence index (RFI) (S. aureus 272123 (MRSA) [11]): −0.14
Relative fluorescence index (RFI) (S. aureus ATCC 25923): −0.11

O=C(Cc1nc2ccccc2o1)C(F)(F)Cl [Compound 2]
Relative fluorescence index (RFI) (E. coli AG100 [2]): 0.17
Relative fluorescence index (RFI) (E. coli AG100 A [3]): −0.01
Cytotoxic effect (class in words) ([4]; 24 h): no (IC50 > 100 µM)
IC50 ([4]; Homo sapiens, MRC5, 24 h): > 100 µM
MIC (S. aureus 272123 (MRSA) [5]): 3.125 µM (≈ 0.768 µg/mL)
MIC (S. aureus 272123 (MRSA) [5]; Staphylococcus aureus): 3.12 µM (≈ 0.768 µg/mL)
MIC (E. coli AG100 [6]; Escherichia coli, E. coli AG100, 18 h, visual inspection, read-out: MIC): 50 µM (≈ 12.3 µg/mL)
MIC ([7]; Chromobacterium violaceum): > 100 µM
MIC ([8]; Enterobacter cloacae): > 100 µM
MIC [9, 12]: 12.5 µM (≈ 3.07 µg/mL)
MIC (E. coli AG100 A [10]; Escherichia coli, AG100A): 25 µM (≈ 6.14 µg/mL)
Relative fluorescence index (RFI) (S. aureus 272123 (MRSA) [11]): −0.07
Relative fluorescence index (RFI) (S. aureus ATCC 25923): −0.07

[O-]C(=Cc1nc2ccccc2o1)C(F)F.[O-]C(=Cc1nc2ccccc2o1)C(F)F.[Zn+2] [Compound 6]
Relative fluorescence index (RFI) (E. coli AG100 [2]): 0.08
Relative fluorescence index (RFI) (E. coli AG100 A [3]): −0.15
Cytotoxic effect (class in words) ([4]; 24 h): strong (IC50: 0–30)
IC50 ([4]; 24 h): 4.72 µM
MIC (S. aureus 272123 (MRSA) [5]): 12.5 µM
MIC (E. coli AG100 [6]; [13]): 50 µM
MIC [7]: >100 µM
MIC [8]: >100 µM
MIC [9]: 25 µM
MIC (E. coli AG100 A [10]; [14]): 12.5 µM
Relative fluorescence index (RFI) (S. aureus 272123 (MRSA) [11]): −0.02
Relative fluorescence index (RFI) (S. aureus ATCC 25923): 0.08

[O-]C(=Cc1nc2ccccc2o1)C(F)(F)F.[O-]C(=Cc1nc2ccccc2o1)C(F)(F)F.[Pd+2] [Compound 10]
Relative fluorescence index (RFI) (E. coli AG100 [2]): −0.06
Relative fluorescence index (RFI) (E. coli AG100 A [3]): 0
Cytotoxic effect (class in words) ([4]; 24 h): weak (IC50: 61–100)
IC50 ([4]; 24 h): 89.1 µM
MIC (S. aureus 272123 (MRSA) [5]): >100 µM
MIC (E. coli AG100 [6]; [13]): >100 µM
MIC [7]: >100 µM
MIC [8]: >100 µM
MIC [9]: >100 µM
MIC (E. coli AG100 A [10]; [14]): >100 µM
Relative fluorescence index (RFI) (S. aureus 272123 (MRSA) [11]): 0
Relative fluorescence index (RFI) (S. aureus ATCC 25923): 0

CN(C)[C@@H]1C(O)=C(C(N)=O)C(=O)[C@@]2(O)C(O)=C3C(=O)c4c(O)cccc4[C@@](C)(O)[C@H]3C[C@@H]12 [TET, tetracycline, reference compound]
MIC of antibiotic in the absence of the compounds (S. aureus MRSA 272123): 6.25 µM
MIC of antibiotic in the absence of the compounds (E. coli AG100 [1]): 50 µM
